Results reported in PubChem BioAssay AID180 (DTP/NCI, 2004).
Values joined by “and” are separate entries in the source; they are usually repeats but may differ in a detail not shown here. Identical values can stand only once.

Test system: BDF1 mice, Adenocarcinoma 755 s.c., tumor weight T/C
Assay: NCI In Vivo Anticancer Drug Screen. Data for tumor model Adenocarcinoma 755 (subcutaneous) in B6D2F1 (BDF1) mice
Conditions: endpoint: mean tumor weight, higher = larger tumour
Method in brief: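 Compound activity was tested in mice carrying transplanted tumors. Survival or tumor size was measured, and each value is the treated-group measurement divided by that of the vehicle-treated control group (T/C).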

[1] = dose: 300.0 mg/kg/injection, schedule: Q01DX011 (ip), vehicle: carboxymethylcellulose (CMC)
[2] = dose: 500.0 mg/kg/injection, schedule: Q01DX011 (ip), vehicle: carboxymethylcellulose (CMC)
[3] = dose: 75.0 mg/kg/injection, schedule: Q01DX011 (ip), vehicle: carboxymethylcellulose (CMC)
[4] = dose: 14.0 mg/kg/injection, schedule: Q01DX011 (ip), vehicle: carboxymethylcellulose (CMC)
[5] = dose: 25.0 mg/kg/injection, schedule: Q01DX011 (ip), vehicle: methylcellulose (MC)
[6] = dose: 50.0 mg/kg/injection, schedule: Q01DX011 (ip), vehicle: methylcellulose (MC)
[7] = dose: 15.0 mg/kg/injection, schedule: Q01DX011 (ip), vehicle: methylcellulose (MC)
[8] = dose: 31.0 mg/kg/injection, schedule: Q01DX011 (ip), vehicle: methylcellulose (MC)
[9] = dose: 125.0 mg/kg/injection, schedule: Q01DX011 (ip), vehicle: methylcellulose (MC)
[10] = dose: 250.0 mg/kg/injection, schedule: Q01DX011 (ip), vehicle: methylcellulose (MC)
[11] = dose: 65.0 mg/kg/injection, schedule: Q01DX011 (ip), vehicle: methylcellulose (MC)

In the case of `O=C(N[C@H](CO)[C@H](O)c1ccc([N+](=O)[O-])cc1)C(Cl)Cl`, the T/C (dose: 71.73 mg/kg/injection, schedule: Q01DX011 (ip), vehicle: carboxymethylcellulose (CMC)) is reported as 88 % of control, the T/C (dose: 73.63 mg/kg/injection, schedule: Q01DX011 (ip), vehicle: carboxymethylcellulose (CMC)) is reported as 103 % of control and 106 % of control and the T/C (dose: 95.85 mg/kg/injection, schedule: Q01DX011 (ip), vehicle: carboxymethylcellulose (CMC)) is reported as 95 % of control. For the same compound, the T/C (dose: 143.47 mg/kg/injection, schedule: Q01DX011 (ip), vehicle: carboxymethylcellulose (CMC)) was 104 % of control, the T/C (dose: 147.25 mg/kg/injection, schedule: Q01DX011 (ip), vehicle: carboxymethylcellulose (CMC)) was 71 % of control and the T/C (dose: 187.5 mg/kg/injection, schedule: Q01DX011 (ip), vehicle: methylcellulose (MC)) was 70 % of control. For the same compound, the T/C (dose: 191.7 mg/kg/injection, schedule: Q01DX011 (ip), vehicle: carboxymethylcellulose (CMC)) was 156 % of control, the T/C (dose: 286.95 mg/kg/injection, schedule: Q01DX011 (ip), vehicle: carboxymethylcellulose (CMC)) was 115 % of control and the T/C (dose: 294.5 mg/kg/injection, schedule: Q01DX011 (ip), vehicle: carboxymethylcellulose (CMC)) was 65 % of control. For the same compound, the T/C [1] was 104 % of control, the T/C (dose: 375.0 mg/kg/injection, schedule: Q01DX011 (ip), vehicle: methylcellulose (MC)) was 62 % of control and the T/C [2] was 69 % of control. The T/C (dose: 750.0 mg/kg/injection, schedule: Q01DX011 (ip), vehicle: methylcellulose (MC)) was 99 % of control.
`O=C(O)Cc1ccc(C2CCCCC2)cc1` was tested, and the T/C (dose: 37.5 mg/kg/injection, schedule: Q01DX011 (ip), vehicle: carboxymethylcellulose (CMC)) was 164 % of control, the T/C [3] was 81 % of control and the T/C (dose: 150.0 mg/kg/injection, schedule: Q01DX011 (ip), vehicle: carboxymethylcellulose (CMC)) was 120 % of control. The T/C [1] was 53 % of control.
In the case of `CC(=O)[C@H]1CC[C@H]2[C@@H]3CCC4=CC(=O)[C@H](C)C[C@]4(C)[C@@]3(F)C(=O)C[C@]12C`, the T/C (dose: 1.5 mg/kg/injection, schedule: Q01DX011 (sc), vehicle: steriod suspending solution) is reported as 120 % of control, the T/C (dose: 3.12 mg/kg/injection, schedule: Q01DX011 (sc), vehicle: steriod suspending solution) is reported as 77 % of control and the T/C (dose: 6.0 mg/kg/injection, schedule: Q01DX011 (sc), vehicle: steriod suspending solution) is reported as 69 % of control. For the same compound, the T/C (dose: 6.25 mg/kg/injection, schedule: Q01DX011 (sc), vehicle: steriod suspending solution) was 79 % of control, the T/C (dose: 12.0 mg/kg/injection, schedule: Q01DX011 (sc), vehicle: steriod suspending solution) was 36 % of control and 56 % of control and the T/C (dose: 12.5 mg/kg/injection, schedule: Q01DX011 (sc), vehicle: steriod suspending solution) was 79 % of control. The T/C (dose: 25.0 mg/kg/injection, schedule: Q01DX011 (sc), vehicle: steriod suspending solution) was 36 % of control and 47 % of control and 58 % of control, the T/C (dose: 50.0 mg/kg/injection, schedule: Q01DX011 (sc), vehicle: steriod suspending solution) was 33 % of control and 39 % of control and the T/C (dose: 51.0 mg/kg/injection, schedule: Q01DX011 (sc), vehicle: steriod suspending solution) was 21 % of control. The T/C (dose: 75.0 mg/kg/injection, schedule: Q01DX011 (sc), vehicle: steriod suspending solution) was 21 % of control, the T/C (dose: 100.0 mg/kg/injection, schedule: Q01DX011 (sc), vehicle: steriod suspending solution) was 9 % of control and 16 % of control and 22 % of control and the T/C (dose: 200.0 mg/kg/injection, schedule: Q01DX011 (sc), vehicle: steriod suspending solution) was 6 % of control and 14 % of control.
`O=C=NC(c1ccccc1)(c1ccccc1)c1ccccc1` was tested, and the T/C (dose: 7.0 mg/kg/injection, schedule: Q01DX011 (ip), vehicle: carboxymethylcellulose (CMC)) was 102 % of control, the T/C [4] was 103 % of control and the T/C (dose: 28.0 mg/kg/injection, schedule: Q01DX011 (ip), vehicle: carboxymethylcellulose (CMC)) was 86 % of control and 87 % of control. For the same compound, the T/C (dose: 112.0 mg/kg/injection, schedule: Q01DX011 (ip), vehicle: carboxymethylcellulose (CMC)) was 71 % of control.
In the case of `CN(C)CCO`, the T/C (dose: 100.0 mg/kg/injection, schedule: Q01DX011 (ip), vehicle: other) is reported as 97 % of control.
In the case of `CCCSc1nc(N)nc2c1ncn2CC(C)C`, the T/C (dose: 6.25 mg/kg/injection, schedule: Q01DX011 (ip), vehicle: methylcellulose (MC)) is reported as 31 % of control, the T/C (dose: 12.5 mg/kg/injection, schedule: Q01DX011 (ip), vehicle: methylcellulose (MC)) is reported as 25 % of control and the T/C [5] is reported as 4 % of control. The T/C [6] was 1 % of control.
In the case of `CCc1c(Cl)nc(N)nc1Nc1ccc(Cl)c(Cl)c1`, the T/C [7] is reported as 117 % of control and the T/C [8] is reported as 123 % of control.
`NC(Cc1cccs1)C(=O)O` (stereo not drawn) was tested, and the T/C (dose: 125.0 mg/kg/injection, schedule: Q01DX011 (ip), vehicle: carboxymethylcellulose (CMC)) was 71 % of control and 72 % of control, the T/C [9] was 90 % of control and the T/C (dose: 250.0 mg/kg/injection, schedule: Q01DX011 (ip), vehicle: carboxymethylcellulose (CMC)) was 91 % of control and 106 % of control. For the same compound, the T/C [10] was 155 % of control, the T/C [2] was 65 % of control and 78 % of control and the T/C (dose: 500.0 mg/kg/injection, schedule: Q01DX011 (ip), vehicle: methylcellulose (MC)) was 59 % of control. The T/C (dose: 1000.0 mg/kg/injection, schedule: Q01DX011 (ip), vehicle: carboxymethylcellulose (CMC)) was 96 % of control and 102 % of control and the T/C (dose: 1000.0 mg/kg/injection, schedule: Q01DX011 (ip), vehicle: methylcellulose (MC)) was 52 % of control.
For `C=C(Br)CN(CC)CCO`, the T/C (dose: 50.0 mg/kg/injection, schedule: Q01DX011 (ip), vehicle: other) was 66 % of control.
With `CCCCn1cnc2c(SCc3ccccc3)nc(N)nc21` the T/C (dose: 7.81 mg/kg/injection, schedule: Q01DX011 (ip), vehicle: methylcellulose (MC)) was 31 % of control, the T/C (dose: 15.62 mg/kg/injection, schedule: Q01DX011 (ip), vehicle: methylcellulose (MC)) was 2 % of control and the T/C (dose: 31.25 mg/kg/injection, schedule: Q01DX011 (ip), vehicle: methylcellulose (MC)) was 1 % of control.
With `CN(C)S(=O)(=O)c1ncc2[nH]cnc2n1` the T/C (dose: 25.0 mg/kg/injection, schedule: Q01DX011 (ip), vehicle: carboxymethylcellulose (CMC)) was 116 % of control, the T/C [3] was 98 % of control and the T/C (dose: 225.0 mg/kg/injection, schedule: Q01DX011 (ip), vehicle: carboxymethylcellulose (CMC)) was 84 % of control.
With `CSc1ncc(Br)c(Nc2ccc(Cl)c(Cl)c2)n1` the T/C [7] was 57 % of control, the T/C [8] was 66 % of control and the T/C (dose: 62.0 mg/kg/injection, schedule: Q01DX011 (ip), vehicle: methylcellulose (MC)) was 78 % of control. For the same compound, the T/C [9] was 67 % of control and the T/C [10] was 62 % of control.
In the case of `CCC(C)Cn1cnc2c(SCc3ccccn3)nc(N)nc21` (stereo not drawn), the T/C (dose: 16.2 mg/kg/injection, schedule: Q01DX011 (ip), vehicle: methylcellulose (MC)) is reported as 37 % of control, the T/C (dose: 32.5 mg/kg/injection, schedule: Q01DX011 (ip), vehicle: methylcellulose (MC)) is reported as 32 % of control and the T/C [11] is reported as 23 % of control and 29 % of control.
In the case of `COC1CC(O)C(COS(C)(=O)=O)O1` (stereo not drawn), the T/C (dose: 25.0 mg/kg/injection, schedule: Q01DX011 (ip), vehicle: saline) is reported as 100 % of control, the T/C (dose: 75.0 mg/kg/injection, schedule: Q01DX011 (ip), vehicle: saline) is reported as 114 % of control and the T/C (dose: 225.0 mg/kg/injection, schedule: Q01DX011 (ip), vehicle: saline) is reported as 113 % of control.
With `O=P(N1CCCCC1)(N1CC1)N1CC1` the T/C (dose: 1.8 mg/kg/injection, schedule: Q01DX011 (ip), vehicle: carboxymethylcellulose (CMC)) was 68 % of control, the T/C (dose: 1.8 mg/kg/injection, schedule: Q01DX011 (ip), vehicle: saline) was 44 % of control and the T/C (dose: 3.5 mg/kg/injection, schedule: Q01DX011 (ip), vehicle: carboxymethylcellulose (CMC)) was 92 % of control. The T/C (dose: 3.5 mg/kg/injection, schedule: Q01DX011 (ip), vehicle: saline) was 38 % of control, the T/C (dose: 7.0 mg/kg/injection, schedule: Q01DX011 (ip), vehicle: saline) was 15 % of control and the T/C [4] was 45 % of control.
For `O=C(Nc1ccc(C2=NCCN2)cc1)c1ccc(N=Nc2ccc(C(=O)Nc3ccc(C4=NCCN4)cc3)cc2)cc1`, the T/C [7] was 151 % of control, the T/C (dose: 30.0 mg/kg/injection, schedule: Q01DX011 (ip), vehicle: methylcellulose (MC)) was 119 % of control and the T/C (dose: 120.0 mg/kg/injection, schedule: Q01DX011 (ip), vehicle: methylcellulose (MC)) was 100 % of control.
For `CC1CCOS(=O)O1` (stereo not drawn), the T/C (dose: 20.0 mg/kg/injection, schedule: Q01DX011 (ip), vehicle: carboxymethylcellulose (CMC)) was 76 % of control and the T/C (dose: 40.0 mg/kg/injection, schedule: Q01DX011 (ip), vehicle: carboxymethylcellulose (CMC)) was 18 % of control.
In the case of `Fc1cccc(CSc2ncnc3c2ncn3C2CCCCO2)c1` (stereo not drawn), the T/C (dose: 20.0 mg/kg/injection, schedule: Q01DX011 (ip), vehicle: methylcellulose (MC)) is reported as 13 % of control and the T/C [11] is reported as 1 % of control.
With `COc1ccc(-n2cnc3c(N)nc(N)nc32)cc1` the T/C [5] was 68 % of control, the T/C [6] was 62 % of control and the T/C (dose: 100.0 mg/kg/injection, schedule: Q01DX011 (ip), vehicle: methylcellulose (MC)) was 50 % of control. The T/C (dose: 200.0 mg/kg/injection, schedule: Q01DX011 (ip), vehicle: methylcellulose (MC)) was 57 % of control.
